pIC50: −log10 of the molar value. Like-named read-outs stand apart in the source and are kept apart here. Blank lines part the entries; values can stand above or below the compound they belong to.
Legend:
[1] = target: His-tagged KRAS G12D protein (Homo sapiens, UniProt P01116, G12D); test: KRAS G12D TR-FRET assay (binding); conditions: biotinylated KRPep-2d substrate, GDP in assay buffer
[2] = test system: Phosphorylation of ERK1/2 in AsPC-1 cells; test: Phospho-ERK1/2 MSD assay; assay type: cell-based; conditions: for IC50: Homo sapiens, ASPC1, read-out: 2 h p-ERK (AsPC-1 cells), IC50 (μM), 2 hours compound treatment
Experimental: Sixteen hours prior to compound treatment, AsPC-1 cells were seeded in 96-well cell culture plates at a density of 25,000 cells/well and incubated at 37° C., 5% CO2. A compound dose-response titration was diluted in growth media, added to appropriate wells of a cell culture plate, and then incubated at 37° C., 5% CO2 for 2 hours.

His-tagged KRAS G12D protein, sequence (P01116 1-188 isoform P01116-2 G12D): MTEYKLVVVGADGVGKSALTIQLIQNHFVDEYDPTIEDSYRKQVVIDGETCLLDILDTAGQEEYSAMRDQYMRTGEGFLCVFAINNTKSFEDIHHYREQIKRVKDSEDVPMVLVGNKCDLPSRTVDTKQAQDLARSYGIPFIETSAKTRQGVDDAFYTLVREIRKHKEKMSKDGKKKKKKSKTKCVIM

SMILES: CCc1c(F)ccc2cc(O)cc(-c3ncc4c(N5CCOC[C@H](CO)C5)nc(OC[C@@]56CCCN5C[C@H](F)C6)nc4c3F)c12 [Example 49, 5-Ethyl-6-fluoro-4-(8-fluoro-2-(((2R, 7aS)-2-fluorotetra-hydro-1H-pyrrol-izin-7a(5H)-yl)-methoxy)-4-((S)-6-(hydroxymethyl)-1,4-oxazepan-4-yl)-pyrido[4,3-d]pyr-imidin-7-yl)naph-thalen-2-ol]
- pIC50 [1]: 7.89
- pIC50 ([2]; read-out: 2 h p-ERK (AsPC-1 cells), IC50, 2 hours compound treatment): 6.05

SMILES: CCc1c(F)ccc2cc(O)cc(-c3ncc4c(N5CCCOC(C(N)=O)C5)nc(OC[C@@]56CCCN5C[C@H](F)C6)nc4c3F)c12 (stereo partly drawn) [Example 51, 4-(7-(8-Ethyl-7-fluoro-3-hydroxy-naphthalen-1-yl)-8-fluoro-2-(((2R, 7aS)-2-fluorotetra-hydro-1H-pyrrol-zin-7a(5H)-yl)-methoxy)pyrido [4,3-d]pyrimidin-4-yl)-1,4-oxazepane-2-carboxamide]
- pIC50 [1]: 8.22
- IC50 [2]: 6.23 µM

SMILES: CCc1c(F)ccc2cc(O)cc(-c3ncc4c(N5CCO[C@H](C)C5)nc(OC[C@@]56CCCN5C[C@H](F)C6)nc4c3F)c12 [Example 52, 5-Ethyl-6-fluoro-4-(8-fluoro-2-(((2R,7aS)-2-fluorotetrahydro-1H-pyrrolizin-7a(5H)-yl)meth-oxy)-4-((R)-2-methylmorpho-lino)-pyrido[4,3-d]pyrimidin-7-yl)-naphthalen-2-ol]
- pIC50 [1]: 7.48
- IC50 [2]: 1.28 µM

SMILES: CCc1c(F)ccc2cc(O)cc(-c3ncc4c(N5CCO[C@@H](COC)C5)nc(OC[C@@]56CCCN5C[C@H](F)C6)nc4c3F)c12 [Example 53, 5-Ethyl-6-fluoro-4-(8-fluoro-2-(((2R, 7aS)-2-fluorotetra-hydro-1H-pyrrol-izin-7a(5H)-yl)-methoxy)-4-((R)-2-(methoxymeth-yl)morpholino)pyr-ido[4,3-d]pyrimi-din-7-yl)naph-thalen-2-ol]
- pIC50 [1]: 7.41
- IC50 [2]: 1.24 µM

SMILES: CCc1c(F)ccc2cc(O)cc(-c3ncc4c(N5CCCOC(CO)C5)nc(OC[C@@]56CCCN5C[C@H](F)C6)nc4c3F)c12 (stereo partly drawn) [Example 56, 5-Ethyl-6-fluoro-4-(8-fluoro-2-(((2R, 7aS)-2-fluorotetra-hydro-1H-pyrrol-izin-7a(5H)-yl)-methoxy)-4-(2-(hydroxymethyl)-1,4-oxazepan-4-yl)pyrido[4,3-d]pyrimidin-7-yl)-naphthalen-2-ol]
- pIC50 [1]: 8.52
- IC50 [2]: 0.081 µM

SMILES: CCc1c(F)ccc2cc(O)cc(-c3ncc4c(N5CCOC(CO)CC5)nc(OC[C@@]56CCCN5C[C@H](F)C6)nc4c3F)c12 (stereo partly drawn) [Example 57, 5-Ethyl-6-fluoro-4-(8-fluoro-2-(((2R, 7aS)-2-fluorotetra-hydro-1H-pyrrolizin-7a(5H)-yl)methoxy)-4-(7-(hydroxymeth-yl)-1,4-oxazepan-4-yl)pyrido[4,3-d]pyrimidin-7-yl)-naphthalen-2-ol]
- pIC50 [1]: 7.89
- IC50 [2]: 5.95 µM

SMILES: CCc1c(F)ccc2cc(O)cc(-c3ncc4c(N5CC6CC5CS6(=O)=O)nc(OC[C@@]56CCCN5C[C@H](F)C6)nc4c3F)c12 (stereo partly drawn) [Example 59, 5-(7-(8-Ethyl-7-fluoro-3-hydroxy-naphthalen-1-yl)-8-fluoro-2-(((2R,7aS)-2-fluorotetrahydro-1H-pyrrolizin-7a(5H)-yl)meth-oxy)pyrido[4,3-d]pyrimidin-4-yl)-2-thia-5-azabicyclo [2.2.1]heptane 2,2-dioxide]
- pIC50 [1]: 7.85
- IC50 [2]: 3.63 µM

SMILES: CCc1c(F)ccc2cc(O)cc(-c3ncc4c(N5CCOCC(C#N)C5)nc(OC[C@@]56CCCN5C[C@H](F)C6)nc4c3F)c12 (stereo partly drawn) [Example 61, 4-(7-(8-Ethyl-7-fluoro-3-hydroxy-naphthalen-1-yl)-8-fluoro-2-(((2R,7aS)-2-fluorotetrahydro-1H-pyrrolizin-7a(5H)-yl)meth-oxy)-pyrido[4,3-d]pyrimidin-4-yl)-1,4-oxazepane-6-carbonitrile]
- pIC50 [1]: 8.52
- IC50 [2]: 0.193 µM

SMILES: CCc1c(F)ccc2cc(O)cc(-c3ncc4c(N5CCCS(=O)(=O)C5)nc(OC[C@@]56CCCN5C[C@H](F)C6)nc4c3F)c12 [Example 62, 3-(7-(8-Ethyl-7-fluoro-3-hydroxy-naphthalen-1-yl)-8-fluoro-2-(((2R,7aS)-2-fluorotetrahydro-1H-pyrrolizin-7a(5H)-yl)meth-oxy)pyrido[4,3-d]pyrimidin-4-yl)-1,3-thiazinane 1,1-dioxide]
- pIC50 [1]: 9.00
- IC50 [2]: 0.07 µM

SMILES: CCc1c(F)ccc2cc(O)cc(-c3ncc4c(N5CCOCC(S(N)(=O)=O)C5)nc(OC[C@@]56CCCN5C[C@H](F)C6)nc4c3F)c12 (stereo partly drawn) [Example 63, 4-(7-(8-Ethyl-7-fluoro-3-hydroxy-naphthalen-1-yl)-8-fluoro-2-(((2R,7aS)-2-fluorotetrahydro-1H-pyrrolizin-7a(5H)-yl)meth-oxy)pyrido[4,3-d]pyrimidin-4-yl)-1,4-oxazepane-6-sulfonamide]
- pIC50 [1]: 8.30
- IC50 [2]: 1.38 µM

Next, values leading:

- pIC50 [1]: 7.82
- IC50 [2]: 0.592 µM
SMILES: CCc1c(F)ccc2cc(O)cc(-c3ncc4c(N5CCOC6CC65)nc(OC[C@@]56CCCN5C[C@H](F)C6)nc4c3F)c12 (stereo partly drawn) [Example 66, 4-(4-((1R,6S)-2-oxa-5-azabicyclo[4.1.0]heptan-5-yl)-8-fluoro-2-(((2R,7aS)-2-fluorotetrahydro-1H-pyrrolizin-7a(5H)-yl)methoxy)-pyrido[4,3-d]pyrim-idin-7-yl)-5-ethyl-6-fluoronaphthalen-2-ol]

- pIC50 [1]: 8.70
- IC50 [2]: 0.072 µM
SMILES: CCc1c(F)ccc2cc(O)cc(-c3ncc4c(N5CCOCC(=O)C5)nc(OCC56CCCN5CC(F)C6)nc4c3F)c12 [Example 67, 4-(7-(8-ethyl-7-fluoro-3-hydroxy-naphthalen-1-yl)-8-fluoro-2-(((2R,7aS)-2-fluorotetrahydro-1H-pyrrolizin-7a(5H)-yl)methoxy)-pyrido[4,3-d]pyrim-idin-4-yl)-1,4-oxazepan-6-one]

- pIC50 [1]: 9.00
- IC50 [2]: 0.643 µM
SMILES: C#CC1(O)COCCN(c2nc(OC[C@@]34CCCN3C[C@H](F)C4)nc3c(F)c(-c4cc(O)cc5ccc(F)c(CC)c45)ncc23)C1 (stereo partly drawn) [Example 70, 4-(7-(8-ethyl-7-fluoro-3-hydroxynaphthalen-1-yl)-8-fluoro-2-(((2R,7aS)-2-fluorotetrahydro-1H-pyrrolizin-7a(5H)-yl)methoxy)pyrido[4,3-d]pyrimidin-4-yl)-6-ethynyl-1,4-oxazepan-6-ol]

- pIC50 [1]: 8.52
- IC50 [2]: 0.063 µM
SMILES: CCc1c(F)ccc2cc(O)cc(-c3ncc4c(N5CCOCC(O)(CC)C5)nc(OC[C@@]56CCCN5C[C@H](F)C6)nc4c3F)c12 (stereo partly drawn) [Example 73, 6-Ethyl-4-(7-(8-ethyl-7-fluoro-3-hydroxynaphthalen-1-yl)-8-fluoro-2-(((2R,7aS)-2-fluorotetrahydro-1H-pyrrolizin-7a(5H)-yl)methoxy)pyrido[4,3-d]pyrimidin-4-yl)-1,4-oxazepan-6-ol]

- pIC50 [1]: 8.40
- IC50 [2]: 0.436 µM
SMILES: CCc1c(F)ccc2cc(O)cc(-c3ncc4c(N5CCOCC(O)(C6CC6)C5)nc(OC[C@@]56CCCN5C[C@H](F)C6)nc4c3F)c12 (stereo partly drawn) [Example 74, 6-Cyclopropyl-4-(7-(8-ethyl-7-fluoro-3-hydroxynaphthalen-1-yl)-8-fluoro-2-(((2R,7aS)-2-fluorotetrahydro-1H-pyrrolizin-7a(5H)-yl)methoxy)pyrido[4,3-d]pyrimidin-4-yl)-1,4-oxazepan-6-ol]
